Measured values published in patent US20110257110A1, “Composition comprising a glycoside of a mono- or diacylglycerol compound and an oil rich in n-3 polyunsaturated fatty acids, a method of producing the composition and use of the composition” (HYBEN VITAL LICENS APS, priority 2008, published 2011).

Experiments:
[1] = system: human peripheral blood leukocytes; experiment: chemiluminescence of peripheral blood leukocytes (oxidative burst response); format: cell-based; details: fairly low concentrations
From the text: Chemiluminescence is a measure of oxidative burst response. […] As the actual tissue damage caused by inflammatory cells such as PMN's and monocytes/macrophages, through the release of proteolytic and hydrolytic enzymes as well as toxic reactive oxygen radicals are activated in the tissue and joints, the isolated compound should be a potent inhibitor of the oxidative burst response of the human peripheral blood polymorphonuclear leukocytes, the most important and abundant inflammatory cells. It is therefore believed that the glycosides of mono- or diacylglycerol compounds, especially GOPO, are responsible for the anti inflammatory effects of rose hip extracts.

[2] = system: polymorphonuclear leucocytes; details: WO 03/043613 A1; cited from earlier work
[3] = aqueous solutions as described in WO03/43613, storage; cited from earlier work
mononuclear leucocytes = details: WO 03/043613 A1; cited from earlier work

## CC/C=C\C/C=C\C/C=C\CCCCCCCC(=O)OCC(CO[C@@H]1O[C@H](CO)[C@H](O)[C@H](O)[C@H]1O)OC(=O)CCCCCCC/C=C\C/C=C\C/C=C\CC (stereo partly drawn) [GOPO, 3-β-D-galactopyranosyloxy-2-(octadeca-9Z,12Z,15Z-trienoyloxy)propanyl octadeca-9Z,12Z,15Z-trienoate]
[1]
  chemiluminescence of human peripheral blood leukocytes: inhibited
[2]
  chemiluminescence of polymorphonuclear leucocytes: alleviating
[3]
  stability in aqueous solutions: lack stability
Mononuclear leucocytes
  chemotaxis of mononuclear leucocytes: alleviating
